Source: US8758770B2 (Research Development Foundation, priority 2006, dated 2014)
Where no end group is shown, it is not given here.

Assays:
Type in all cases: in vivo
[1] = test system: EAE in C57BL/6 mice immunized with MOG peptide 35-55; test: Spinal cord foci of inflammation after oral ACTH in EAE mice; details: Ex 1-A, control mock placebo group 4.72±0.34
Method: Following administration, clinical outcome is measured in at least two ways: by comparing the difference between group active treatment scores and placebo group scores from day 26-33 post immunization, and comparing group mean scores directly (day 17-35 post-immunization). Following sacrifice, spinal cords are removed and evaluated independently for foci of inflammation by a blinded observer.

[2] = Toxicity of oral ACTH administered over an extended time period; details: orally administered to mice over an extended time period
[3] = test system: EAE in C57BL/6 mice immunized with MOG peptide 35-55; test: Oral ACTH treatment of EAE mice, clinical score; set-up: key to Clinical Score: 0 = no disease to 6 = paraplegia with severe weakness/ataxia
Method: EAE is a T cell mediated inflammatory autoimmune process of the CNS that resembles in some aspects the human demyelinating disease multiple sclerosis. It thus provides a useful animal model for the evaluation of potential therapies for MS. […] This protocol mimics clinical practice since patients are treated with ACTHAR® Gel after they experience a clinical exacerbation of their disease, albeit clinical treatment is via intramuscular injection.
Clinical severity is graded daily by a blinded observer as follows: 0=no disease; 1=minimal or mild hind limb weakness (associated with limp tail); 2=moderate hind limb weakness or mild ataxia (waddling gait and/or poor righting ability); 3=moderate to severe hind limb weakness; 4=severe hind limb weakness or moderate ataxia; 5=paraplegia with no more than moderate four limb weakness; 6=paraplegia with severe four limb weakness or severe ataxia. […]

SYSMEHFRWGKPVGKKRRPVKVYPDGAEDQLAEAFPLEF [ACTH]
mean group inflammatory score (inflammatory foci, spinal cord) ([1]; 10 microgram fed group, p<0.008): 3.05±0.3
mean group inflammatory score (inflammatory foci, spinal cord) ([1]; 1000 microgram fed group, p<0.00002): 2.27±0.23
toxicity [2]: no detectable toxicity
recovery from EAE attack compared to placebo, difference between group active treatment and placebo group scores ([3]; Ex 1-A, 10 or 1000 microgram oral dose, 10 microgram p<0.03, 1000 microgram p<0.05): significantly improved recovery
recovery compared to placebo, comparing group mean scores directly ([3]; Ex 1-A, oral doses of 10, 100, and 1000 microgram): significantly faster recovery
recovery from EAE attack compared to placebo, difference between group active treatment and group placebo scores ([3]; Ex 1-B, 10 IU p<0.0001, 100 IU p<0.0003, 1000 IU p<0.0007): significantly improved recovery
recovery from EAE attack compared to placebo, comparing group mean scores directly ([3]; Ex 1-B, oral 10 and 1000 IU, 10 IU p<0.00001, 100 IU p<0.00006, 1000 IU p<0.00003): significantly improved recovery
Clinical Score ([3]; Table 1, Ex 1-A, ACTH 10 microgram oral daily, day 28, control 2.88): 1.38
Clinical Score ([3]; Table 1, Ex 1-A, ACTH 10 microgram oral daily, day 32, control 3): 1.38
Clinical Score ([3]; Table 1, Ex 1-A, ACTH 10 microgram oral daily, day 33, control 3): 1.375
Clinical Score ([3]; Table 1, Ex 1-A, ACTH 10 microgram oral daily, day 35, control 3.13): 1.38
Clinical Score ([3]; Table 1, Ex 1-A, ACTH 100 microgram oral daily, day 22, control 2.63): 2.5
Clinical Score ([3]; Table 2, Ex 1-B, 1000 IU oral daily, day 40, control […]): 1.13
Clinical Score ([3]; Table 2, Ex 1-B, ACTH 10 IU oral daily, day 32, control […]): 1.38
Clinical Score ([3]; Table 2, Ex 1-B, ACTH 10 IU oral daily, day 33, control 2): 1
Clinical Score ([3]; Table 2, Ex 1-B, ACTH 10 IU oral daily, day 40, control […]): 1.25
Clinical Score ([3]; Table 2, Ex 1-B, ACTH 100 IU oral daily, day 32, control […]): 1.38
Clinical Score ([3]; Table 2, Ex 1-B, ACTH 100 IU oral daily, day 40, control […]): 1.38
